Measured values reported in patent US20250171434A1, “SEC61 INHIBITORS AND USE THEREOF” (KEZAR LIFE SCIENCES, INC., priority 2022, published 2025).

Legend:
[1] = Liver Microsome Stability Assay, rat; type: in vitro ADME; settings: rat liver microsomes 1.0 mg/mL, 1.0 uM compound, 37° C., 1 mM NADPH
Experimental: (§1) Stability of a compound was assessed in the presence of liver microsomes from various sources—mouse, rat, monkey and human liver microsomes. 1.0 uM compound, 0.4% DMSO in 0.1 M Potassium Phosphate with 1.0 mg/mL liver microsomes, were incubated at 37° C. with or without 1 mM NADPH. The samples were quenched at 0, and 30 minutes.

[2] = Liver Microsome Stability Assay, mouse; type: in vitro ADME; settings: mouse liver microsomes 1.0 mg/mL, 1.0 uM compound, 37° C., 1 mM NADPH
Experimental: as §1

[3] = test system: multiple myeloma cell line U266B1; experiment: U266 Cell Viability Assay; type: cell-based; settings: Homo sapiens, U-266; U266B1 cells, 48 hours, Celltiter-Glo; read-out: 48 hr U266 Viability Celltiter-Glo: Mean EC50
Experimental: (§2) The human multiple myeloma cell line U266B1 was cultured in RPMI 1640 media supplemented with 10% fetal bovine serum, 2 mM Glutamine, and 1× Penicillin/Streptomycin. Cells were plated in 384-well tissue culture plates and treated with compound dilutions in DMSO/media. Plates were incubated at 37° C., 5% CO2 for 48 hours. After 48 hours, Celltiter-Glo® (Promega) was added to each well and luciferase signal was quantified using Tecan Infinite M1000 Pro for cell viability determination.
(§3) For chemical structures that include one or more stereoisomers, but are illustrated without indicating stereochemistry, the assay data refers to a mixture of stereoisomers.

[4] = test system: PD1-ss+10aa/Gaussia Luciferase; experiment: Dox-Induced PD1-ss-Gluc Assay; type: cell-based; settings: Flp-In 293 T-REx cells, 24 hours with doxycycline; Table 1; read-out: 24 hr Dox Inducible PD1ssGluc 293FRT/TO: Mean IC50
Source text: Flp-In 293 T-REx™ cells were transfected with pcDNA™5/FRT/TO plasmid inserted with cDNA encoding Gaussia Luciferase fused to the 3′ end of cDNA encoding PD1 signal sequence plus 10 amino acids (N-[…]-C) (SEQ ID NO: 1). Transfected cells were selected for resistance to the selectable markers Hygromycin and Blasticidin to create a stable cell line that contained the PD1-ss+10aa/Gaussia Luciferase cDNA insert whose expression was regulated under the T-REx™ system. The day before assay, cells were trypsinized and plated in 384-well tissue culture plates. The next day, compound dilutions in DMSO/media containing doxycycline were added to the wells and incubated at 37° C., 5% CO2.
as §3

[5] = test system: IL-2-FL/Gaussia Luciferase; experiment: Dox Inducible IL2-FL-Gluc Assay; type: cell-based; settings: Table 1; for IC50: Flp-In 293 T-REx cells, 24 hours with doxycycline, read-out: 24 hr Dox Inducible IL2FLGluc 293FRT/TO: Mean IC50; for 24 hr Dox Inducible IL2FLGluc 293FRT/TO: IL2/PD1: ratio of IC50s IL2/PD1
Source text: Flp-In 293 T-REx™ cells were transfected with pcDNA™5/FRT/TO plasmid inserted with cDNA encoding Gaussia Luciferase fused to the 3′ end of cDNA encoding full length IL-2 (amino acids 1-153). Transfected cells were selected for resistance to the selectable markers Hygromycin and Blasticidin to create a stable cell line that contained the IL-2-FL/Gaussia Luciferase cDNA insert whose expression was regulated under the T-REx™ system. The day before assay, cells were trypsinized and plated in 384-well tissue culture plates. The next day, compound dilutions in DMSO/media containing doxycycline were added to the wells and incubated at 37° C., 5% CO2.
as §3

[6] = Liver Microsome Stability Assay, human; type: in vitro ADME; settings: human liver microsomes 1.0 mg/mL, 1.0 uM compound, 37° C., 1 mM NADPH
Experimental: as §1

[7] = Liver Microsome Stability Assay, monkey; type: in vitro ADME; settings: monkey liver microsomes 1.0 mg/mL, 1.0 uM compound, 37° C., 1 mM NADPH
Experimental: as §1

CD47(ss + 10)Gluc = experiment: Dox-Induced CD47-ss-Gluc Assay; type: cell-based; settings: Flp-In 293 T-REx cells, 24 hours with doxycycline; Table 1; read-out: 24 hr Dox Inducible CD47(ss + 10)Gluc 293FRT/TO: Mean IC50
[8] = test system: multiple myeloma cell line NCI-H929; experiment: H929 Cell Viability Assay; type: cell-based, human; settings: NCI-H929 cells, 48 hours, Celltiter-Glo; for EC50: Homo sapiens, read-out: 48 hr H929 Viability Celltiter-Glo: Mean EC50
Experimental: as §2, with “NCI-H929” for “U266B1”, “cultured in Advanced RPMI 1640 media (Gibco®) supplemented with 6% fetal bovine serum, 2 mM Glutamine, and 1× Penicillin/Streptomycin. On the day of assay, cells were resuspended” for “cultured”, “Penicillin/Streptomycin and” for “Penicillin/Streptomycin. Cells were”
as §3

[9] = test system: IL6R-ss+10aa/Gaussia Luciferase; experiment: Dox-induced IL-6R-ss-Gluc Assay; type: cell-based; settings: Table 1; for IC50: Flp-In 293 T-REx cells, 24 hours with doxycycline, read-out: 24hr Dox Inducible IL6R(ss + 10)Gluc 293FRT/TO: Mean IC50; for 24hr Dox Inducible IL6R(ss + 10)Gluc 293FRT/TO: IL6R/PD1: ratio of IC50s IL6R/PD1
Source text: Flp-In 293 T-REx™ cells were transfected with pcDNATM5/FRT/TO plasmid inserted with cDNA encoding Gaussia Luciferase fused to the 3′ end of cDNA encoding IL6R signal sequence plus 10 amino acids (N-[…]-C). Transfected cells were selected for resistance to the selectable markers Hygromycin and Blasticidin to create a stable cell line that contained the IL6R-ss+10aa/Gaussia Luciferase cDNA insert whose expression was regulated under the T-REx™ system. The day before assay, cells were trypsinized and plated in 384-well tissue culture plates. The next day, compound dilutions in DMSO/media containing doxycycline were added to the wells and incubated at 37° C., 5% CO2.
as §3

SMILES	Liver Microsome Stability (Multiple Species): Rat - % Remaining after 30 min w/ NADPH (%) [1]	Liver Microsome Stability (Multiple Species): Mouse - % Remaining after 30 min w/ NADPH (%) [2]	EC50 [3]	IC50 [4]	IC50 [5]	24 hr Dox Inducible IL2FLGluc 293FRT/TO: IL2/PD1 [5]	Liver Microsome Stability (Multiple Species): Human - % Remaining after 30 min w/ NADPH (%) [6]	Liver Microsome Stability (Multiple Species): Monkey - % Remaining after 30 min w/ NADPH (%) [7]	IC50 (CD47(ss + 10)Gluc)	48 hr H929 Viability Celltiter-Glo: Mean EC50 (nM) [8]	IC50 [9]	24hr Dox Inducible IL6R(ss + 10)Gluc 293FRT/TO: IL6R/PD1 [9]	EC50 [8]
O=C(Nc1nc(/C=C/c2ncn(C3CC3)c2Cl)cs1)c1cc(OC(F)F)cn1Cc1ccnc(F)c1 [Compound A15, (E)-N-(4-(2-(5-chloro-1-cyclopropyl-1H-imidazol-4-yl)vinyl)thiazol-2-yl)-4-(difluoromethoxy)-1-((2-fluoropyridin-4-yl)methyl)-1H-pyrrole-2-carboxamide]	55%	100%	> 25 µM	0.006 µM	2.94 µM	490	73%	57%	3.23 µM	I.A	2.07 µM	345	
[2H]C([2H])(c1ccnc(F)c1)n1cc(OC(F)F)cc1C(=O)Nc1nc(/C=C/c2ncn(C3CC3)c2Cl)cs1 [Compound A16, (E)-N-(4-(2-(5-chloro-1-cyclopropyl-1H-imidazol-4-yl)vinyl)thiazol-2-yl)-4-(difluoromethoxy)-1-((2-fluoropyridin-4-yl)methyl-d2)-1H-pyrrole-2-carboxamide]	56%	81%	> 25 µM	0.006 µM	2.91 µM	460	83%	58%	2.8 µM		2.15 µM	339	> 25 µM
CCOc1cc(C(=O)Nc2nc(/C=C/c3ncn(C4CC4)c3Cl)cs2)n(Cc2ccnc(F)c2)c1 [Compound A17, (E)-N-(4-(2-(5-chloro-1-cyclopropyl-1H-imidazol-4-yl)vinyl)thiazol-2-yl)-4-ethoxy-1-((2-fluoropyridin-4-yl)methyl)-1H-pyrrole-2-carboxamide]	2%	72%	> 25 µM	0.009 µM	3.02 µM	340	26%	17%	2.74 µM	I.A	2.1 µM	240	
O=C(Nc1nc(/C=C/c2ncn(C3CC3)c2Cl)cs1)c1cc(O)cn1Cc1ccnc(F)c1 [Compound A18, (E)-N-(4-(2-(5-chloro-1-cyclopropyl-1H-imidazol-4-yl)vinyl)thiazol-2-yl)-1-((2-fluoropyridin-4-yl)methyl)-4-hydroxy-1H-pyrrole-2-carboxamide]	10%	33%	> 25 µM	0.295 µM	7 µM	24	1%	2%	6.41 µM		5.53 µM	19	24.7 µM
O=C(Nc1nc(/C=C/c2ncn(C3CC3)c2Cl)cs1)c1cc(OCF)cn1Cc1ccnc(F)c1 [Compound A19, (E)-N-(4-(2-(5-chloro-1-cyclopropyl-1H-imidazol-4-yl)vinyl)thiazol-2-yl)-4-(fluoromethoxy)-1-((2-fluoropyridin-4-yl)methyl)-1H-pyrrole-2-carboxamide]	23%	65%	> 25 µM	0.01 µM	3.66 µM	360	4%	51%	4.35 µM		2.91 µM	287	> 25 µM
COc1cc(C(=O)Nc2nc(/C=C/c3ncn(C4CC4)c3Cl)cs2)n(Cc2ccnc(F)c2F)c1 [Compound A20]	41%	74%	> 25 µM	0.031 µM	> 25 µM	>810	52%	28%	5.01 µM		3.76 µM	123	> 25 µM
COc1cc(C(=O)Nc2nc(/C=C/c3ncn(C(C)C)c3Cl)c(CO)s2)n(Cc2ccnc(F)c2F)c1 [Compound A21]	59%	51%	> 25 µM	0.238 µM	> 25 µM	>110	1%	<1%	5.87 µM		> 25 µM	>105	> 25 µM
